Converted amounts (≈) assume the structure as drawn.
Assays:
[1] = target: T1, C-C chemokine receptor type 4 (Homo sapiens, UniProt P51679); experiment: Antagonist activity at CCR4 in human PBMC assessed as inhibition of actin polymerization by flow cytometry; details: read-out: pA2 (converted)
T1 sequence (P51679 whole entry): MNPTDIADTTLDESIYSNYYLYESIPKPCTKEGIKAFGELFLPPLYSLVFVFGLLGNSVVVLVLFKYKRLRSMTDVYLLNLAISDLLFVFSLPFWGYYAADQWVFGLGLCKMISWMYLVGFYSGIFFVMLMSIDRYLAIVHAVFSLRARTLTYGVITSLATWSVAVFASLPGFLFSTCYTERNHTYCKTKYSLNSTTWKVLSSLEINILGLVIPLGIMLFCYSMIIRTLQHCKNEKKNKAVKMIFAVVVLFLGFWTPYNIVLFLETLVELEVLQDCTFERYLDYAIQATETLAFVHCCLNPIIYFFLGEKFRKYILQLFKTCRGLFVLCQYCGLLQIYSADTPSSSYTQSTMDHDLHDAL

[2] = Kinetic solubility of the compound by chemiluminescent nitrogen detection assay; type: physicochemical; details: read-out: Kinetic_solubility
[3] = target: T1, C-C chemokine receptor type 4; experiment: Displacement of [125I]-TARC from human recombinant CCR4 expressed in CHO cell membranes by scintillation counting method
[4] = target: T1, C-C chemokine receptor type 4; experiment: Antagonist activity at human CCR4 expressed in CHO cells by [35S]GTPgammaS assay; type: functional, cell-based
[5] = target: T1, C-C chemokine receptor type 4; experiment: (§1) Induction of CCR4 internalisation in human HUT78 cells after 30 mins by flow cytometry; type: functional, cell-based
[6] = target: T2, C-C chemokine receptor type 4 (Homo sapiens) (UniProt P51679); experiment: as §1; type: functional, cell-based
T2 sequence (whole entry): T1 sequence (P51679 whole entry)

[7] = target: T2, C-C chemokine receptor type 4 (Homo sapiens); experiment: Induction of CCR4 internalisation in human HUT78 cells at 10 nM after 30 mins by flow cytometry; type: functional, cell-based
[8] = Volume of distribution in rat at 1 mg/kg; type: ADME, organism-based; details: in vivo
[9] = Clearance in rat at 1 mg/kg; type: ADME, organism-based; details: in vivo
[10] = Plasma protein binding in human; type: ADME, cell-free; details: read-out: PPB (converted)
Rattus norvegicus = experiment: Clearance in rat at 1 mg/kg relative to liver blood flow; type: ADME, organism-based; details: in vivo
[11] = Half life in rat at 1 mg/kg; type: ADME, organism-based; details: in vivo

| solubility kinetic [2] [µg/mL] | Ki [3] [nM] | SMILES | also measured |
| --- | --- | --- | --- |
| 140 (≈ 312 µM) | 2.51 | O=C([C@H]1CCCCN1)N1CCN(c2nccc(NCc3ccc(Cl)cc3Cl)n2)CC1 | Kb [1]: 174 nM; IC50 [4]: 7.94 nM |
|  |  | COc1cc2nc(N3CCC(N(C)C(=O)[C@H]4CCCN4)CC3)nc(Nc3ccc(Cl)cc3F)c2cc1OC | EC50 [5]: 398 nM |
| 3 (≈ 5.97 µM) | 631 | O=C(C1CCCCC1)N1CCC2(CCN(c3nccc(NCc4ccc(Cl)cc4Cl)n3)CC2)C1 |  |
| 170 (≈ 338 µM) | 20 | O=C([C@@H]1CCCCN1)N1CCC2(CCN(c3nccc(NCc4ccc(Cl)cc4Cl)n3)CC2)C1 |  |
| 144 | 316 | Cl.Cl.Clc1ccc(CNc2ccnc(N3CCC4(CCNC4)CC3)n2)c(Cl)c1 |  |
| 138 | 126 | CNCC(=O)N1CCC2(CCN(c3nccc(NCc4ccc(Cl)cc4Cl)n3)CC2)C1.O=C(O)C(F)(F)F.O=C(O)C(F)(F)F |  |
| 172 (≈ 342 µM) | 25.1 | O=C([C@H]1CCCCN1)N1CCC2(CCN(c3nccc(NCc4ccc(Cl)cc4Cl)n3)CC2)C1 |  |
| 56 (≈ 118 µM) | 3.98 | Clc1ccc(CNc2ccnc(N3CCC4(CCN(C[C@@H]5CCCN5)C4)CC3)n2)c(Cl)c1 | Activity [6]: 56%; EC50 [5]: 12.6 nM |
| 17 (≈ 34.2 µM) | 100 | O=C(c1ccccn1)N1CCC2(CCN(c3nccc(NCc4ccc(Cl)cc4Cl)n3)CC2)C1 |  |
| 180 (≈ 368 µM) | 15.8 | O=C([C@H]1CCCN1)N1CCC2(CCN(c3nccc(NCc4ccc(Cl)cc4Cl)n3)CC2)C1 |  |
| 16 (≈ 33.7 µM) | 5.01 | Clc1ccc(CNc2ccnc(N3CCC4(CCN(C[C@H]5CCCN5)C4)CC3)n2)c(Cl)c1 | Activity [6]: 64%; EC50 [5]: 6.31 nM |
| 165 (≈ 337 µM) | 100 | O=C([C@@H]1CCCN1)N1CCC2(CCN(c3nccc(NCc4ccc(Cl)cc4Cl)n3)CC2)C1 |  |
|  |  | C[N+]1(C2CCN(c3ncc(-c4ccc(F)cc4F)c(NCc4ccc(F)cc4F)n3)CC2)CCCCC1 | Activity [7]: 50% |
| 182 (≈ 372 µM) | 2.51 | Clc1ccc(CNc2ccnc(N3CCC4(CCN(CC5CCCCN5)C4)CC3)n2)c(Cl)c1 (racemic) |  |
| 141 (≈ 288 µM) | 1 | CN(Cc1ccc(Cl)cc1Cl)c1ccnc(N2CCC3(CCN(CC4CCCN4)C3)CC2)n1 (racemic) | Kb [1]: 1000 nM; Activity [6]: 74%; EC50 [5]: 158 nM; IC50 [4]: 7.94 nM |
| 79 (≈ 161 µM) | 25.1 | O=C(C1CCCN1)N1CCC2(CCN(c3nccc(NCc4ccc(Cl)cc4Cl)n3)CC2)C1 (racemic) |  |
| 339 | 50.1 | O=C(C1CCNC1)N1CCC2(CCN(c3nccc(NCc4ccc(Cl)cc4Cl)n3)CC2)C1.O=C(O)C(F)(F)F (racemic) |  |
| 186 (≈ 369 µM) | 50.1 | O=C(C1CCCNC1)N1CCC2(CCN(c3nccc(NCc4ccc(Cl)cc4Cl)n3)CC2)C1 (racemic) |  |
| 270 (≈ 568 µM) | 1.58 | Clc1ccc(CNc2ccnc(N3CCC4(CCN(CC5CCCN5)C4)CC3)n2)c(Cl)c1 (racemic) | Vd [8]: 5 L/kg; Kb [1]: 200 nM; clearance [9]: 15 mL/min/kg; fraction unbound [10]: 0.068; CL (Rattus norvegicus): 18%; half-life [11]: 4 h; IC50 [4]: 7.94 nM |
| 190 (≈ 377 µM) | 25.1 | CN(Cc1ccc(Cl)cc1Cl)c1ccnc(N2CCC3(CCN(C(=O)C4CCCN4)C3)CC2)n1 (racemic) |  |
| 160 (≈ 362 µM) | 3.16 | Fc1ccc(CNc2ccnc(N3CCC4(CCN(CC5CCCN5)C4)CC3)n2)c(F)c1 (racemic) | Activity [6]: 62%; EC50 [5]: 15.8 nM; IC50 [4]: 7.94 nM |
| 175 (≈ 383 µM) | 25.1 | O=C(C1CCCN1)N1CCC2(CCN(c3nccc(NCc4ccc(F)cc4F)n3)CC2)C1 (racemic) |  |
| 233 (≈ 461 µM) |  | O=C(C1COCCN1)N1CCC2(CCN(c3nccc(NCc4ccc(Cl)cc4Cl)n3)CC2)C1 (racemic) |  |
